Reference: PubChem BioAssay (NCI)
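Method: 48-hour compound exposure of cells in 96-well plates, five concentrations, linear interpolation of endpoints. TGI: concentration producing complete growth inhibition.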

Assays:
Assay in all cases: DTP human tumour cell line panel, 48 h
A498 renal = test system: A498 renal
OVCAR-3 ovarian = test system: OVCAR-3 ovarian
PC-3 prostate = test system: PC-3 prostate
SN12C renal = test system: SN12C renal
MOLT-4 leukemia = test system: MOLT-4 leukemia
A549 NSCLC = test system: A549 NSCLC
CCRF-CEM leukemia = test system: CCRF-CEM leukemia
COLO 205 colon = test system: COLO 205 colon
UACC-62 melanoma = test system: UACC-62 melanoma
SK-OV-3 ovarian = test system: SK-OV-3 ovarian
NCI-H23 lung = test system: NCI-H23 lung
KM12 colon = test system: KM12 colon
MDA-N = test system: MDA-N
U251 CNS = test system: U251 CNS
SNB-75 CNS = test system: SNB-75 CNS
HCC-2998 colon = test system: HCC-2998 colon
RXF 393 renal = test system: RXF 393 renal

Row | Structure (SMILES) | TGI (A498 renal) | TGI (OVCAR-3 ovarian) | TGI (PC-3 prostate) | TGI (SN12C renal) | TGI (MOLT-4 leukemia) | TGI (A549 NSCLC) | TGI (CCRF-CEM leukemia) | TGI (COLO 205 colon) | TGI (UACC-62 melanoma) | TGI (SK-OV-3 ovarian) | TGI (NCI-H23 lung) | TGI (KM12 colon) | TGI (MDA-N) | TGI (U251 CNS) | TGI (SNB-75 CNS) | TGI (HCC-2998 colon) | TGI (RXF 393 renal)
1 | O=c1[nH][nH]c(=O)n1/N=C/c1ccccc1 | > 100 µM | > 100 µM | > 100 µM | > 100 µM | > 100 µM | > 100 µM | > 100 µM | > 100 µM | > 100 µM | > 100 µM | > 100 µM | > 100 µM | > 100 µM | > 100 µM | > 100 µM | – | –
2 | Cc1ccc(S(=O)(=O)N/N=C2\CCC3(O)CC2(C)CCC2C3CC2(C)C)cc1 (stereo unspecified) | > 100 µM | > 100 µM | 66.2 µM | > 100 µM | > 100 µM | > 100 µM | > 100 µM | 46.5 µM | > 100 µM | > 100 µM | > 100 µM | > 100 µM | > 100 µM | > 100 µM | – | > 100 µM | > 100 µM
3 | COc1c(C(C)(C)C)cc(CC2C(=O)C=CC2=O)cc1C(C)(C)C | 32.9 µM | 33.9 µM | 35.8 µM | > 73 µM | 10.3 µM | 55.4 µM | 14.9 µM | 24 µM | 33.2 µM | 56 µM | 48.9 µM | 34 µM | 39.6 µM | 35.4 µM | – | – | 30.4 µM
4 | CCOC(=O)/C(C(=S)NCc1ccccc1)=C(/N)N1CCCC1 | > 100 µM | > 100 µM | > 100 µM | > 100 µM | > 100 µM | > 100 µM | > 100 µM | > 100 µM | > 100 µM | – | > 100 µM | > 100 µM | > 100 µM | > 100 µM | – | > 100 µM | > 100 µM
5 | CCNC1=C(NC(=O)c2ccccc2)C(=O)c2ccccc2C1=O | – | 85.3 µM | 78.9 µM | > 100 µM | > 100 µM | > 100 µM | > 100 µM | > 100 µM | > 100 µM | > 100 µM | > 100 µM | > 100 µM | 24.1 µM | > 100 µM | – | > 100 µM | 74.1 µM
6 | COC1=C2CC(C)CC(OC)C(OC(=O)CN)[C@H](C)/C=C(\C)C(OC(N)=O)C(OC)/C=C\C=C(/C)C(=O)NC(=CC1=O)C2=O (stereo partly specified) | 24.7 µM | 2.98 µM | 13.3 µM | 4.91 µM | 1.57 µM | 21.8 µM | – | 0.559 µM | 1.78 µM | 16.7 µM | 1.77 µM | 4.29 µM | 3.34 µM | 12.6 µM | – | 7.81 µM | 8.21 µM
7 | N#CC(C#N)=c1c2ccccc2c(=C(C#N)C#N)c2ccccc12 | 54.9 µM | 30 µM | 30.4 µM | 30.7 µM | > 100 µM | > 100 µM | 50.9 µM | 37.5 µM | 28.5 µM | 44.4 µM | 43.7 µM | 37.6 µM | 41.5 µM | 55.4 µM | 39.8 µM | – | –
8 | Cc1ccc(S(=O)(=O)N/N=C2\CCCCCCCCCCC2CN(C)C)cc1 (stereo unspecified) | 34.9 µM | 32.9 µM | 30.3 µM | 44.4 µM | > 100 µM | 41 µM | 37.2 µM | 31.9 µM | 32.3 µM | 36 µM | 55.8 µM | 31.8 µM | 32.8 µM | 29.3 µM | – | 20.8 µM | 26.6 µM
9 | COC(=O)c1c(O)ccc2c1c1c(n2Cc2ccccc2OC)C(=O)c2ccccc2C1=O | > 100 µM | 23 µM | 24.5 µM | 25.4 µM | 1.42 µM | 20.2 µM | 17.7 µM | 3.31 µM | – | 53.7 µM | 34.8 µM | 23.4 µM | 37.9 µM | 24.4 µM | – | 15.7 µM | 30.7 µM
10 | OCCCCn1cc(Cn2ncc3c(NCc4ccccc4)ncnc32)nn1 | > 100 µM | > 100 µM | > 100 µM | > 100 µM | > 100 µM | > 100 µM | > 100 µM | > 100 µM | > 100 µM | > 100 µM | > 100 µM | > 100 µM | > 100 µM | > 100 µM | – | > 100 µM | > 100 µM
11 | O=C1c2ccccc2C(=O)c2c(NC(=O)C3CC3)ccc(NC(=O)C3CC3)c21 | > 100 µM | > 100 µM | > 100 µM | > 100 µM | > 100 µM | > 100 µM | – | > 100 µM | > 100 µM | – | > 100 µM | > 100 µM | > 100 µM | > 100 µM | – | > 100 µM | –
12 | COc1ccc(CCNC(=O)c2ccccc2C2c3ccc(OCc4ccccc4)cc3Oc3cc(OCc4ccccc4)ccc32)cc1OC | > 100 µM | > 100 µM | > 100 µM | > 100 µM | > 100 µM | > 100 µM | – | > 100 µM | > 100 µM | > 100 µM | > 100 µM | > 100 µM | > 100 µM | > 100 µM | – | > 100 µM | > 100 µM
